These results are taken from ChEMBL document CHEMBL1201862, “PubChem BioAssay data set” (2004).

The source made the active and inactive calls.

Assay [1] addresses T1, Sentrin-specific protease 7 (Homo sapiens, UniProt Q9BQF6).
T1 sequence (Q9BQF6 whole entry): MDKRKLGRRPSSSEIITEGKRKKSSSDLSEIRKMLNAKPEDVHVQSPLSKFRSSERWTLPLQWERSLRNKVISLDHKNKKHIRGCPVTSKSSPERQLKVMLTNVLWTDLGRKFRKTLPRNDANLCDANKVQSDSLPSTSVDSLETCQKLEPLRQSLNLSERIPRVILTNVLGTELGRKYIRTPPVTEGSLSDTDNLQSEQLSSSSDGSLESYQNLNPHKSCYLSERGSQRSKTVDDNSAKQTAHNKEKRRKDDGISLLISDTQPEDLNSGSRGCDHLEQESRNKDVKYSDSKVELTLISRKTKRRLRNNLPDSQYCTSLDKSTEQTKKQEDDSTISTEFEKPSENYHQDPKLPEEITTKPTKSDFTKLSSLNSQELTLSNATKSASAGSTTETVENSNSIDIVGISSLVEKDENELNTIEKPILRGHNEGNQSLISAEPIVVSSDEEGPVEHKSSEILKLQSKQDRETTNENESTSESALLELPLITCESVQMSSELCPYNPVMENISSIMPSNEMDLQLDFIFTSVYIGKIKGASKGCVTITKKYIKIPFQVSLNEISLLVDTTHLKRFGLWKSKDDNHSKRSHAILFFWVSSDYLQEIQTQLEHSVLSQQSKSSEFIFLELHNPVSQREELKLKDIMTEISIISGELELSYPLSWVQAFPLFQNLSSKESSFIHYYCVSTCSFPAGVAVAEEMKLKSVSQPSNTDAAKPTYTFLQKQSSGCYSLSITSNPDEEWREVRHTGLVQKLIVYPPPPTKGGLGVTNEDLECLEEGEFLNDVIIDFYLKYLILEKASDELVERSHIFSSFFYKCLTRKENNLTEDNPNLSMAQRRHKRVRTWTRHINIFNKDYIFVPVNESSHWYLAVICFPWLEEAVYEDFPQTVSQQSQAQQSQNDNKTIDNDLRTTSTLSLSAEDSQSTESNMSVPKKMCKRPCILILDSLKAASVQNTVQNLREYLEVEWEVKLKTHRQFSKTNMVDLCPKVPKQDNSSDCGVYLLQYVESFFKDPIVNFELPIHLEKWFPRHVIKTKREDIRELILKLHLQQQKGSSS
As to the kind of experiment: inhibition of human SENP7 cleavage activity – biochemical, luminescence, SAR follow-up (AID 504497). The format is functional.

Assay [2] deals with T2, Sentrin-specific protease 6 (Homo sapiens, UniProt Q9GZR1).
T2 sequence (Q9GZR1 whole entry): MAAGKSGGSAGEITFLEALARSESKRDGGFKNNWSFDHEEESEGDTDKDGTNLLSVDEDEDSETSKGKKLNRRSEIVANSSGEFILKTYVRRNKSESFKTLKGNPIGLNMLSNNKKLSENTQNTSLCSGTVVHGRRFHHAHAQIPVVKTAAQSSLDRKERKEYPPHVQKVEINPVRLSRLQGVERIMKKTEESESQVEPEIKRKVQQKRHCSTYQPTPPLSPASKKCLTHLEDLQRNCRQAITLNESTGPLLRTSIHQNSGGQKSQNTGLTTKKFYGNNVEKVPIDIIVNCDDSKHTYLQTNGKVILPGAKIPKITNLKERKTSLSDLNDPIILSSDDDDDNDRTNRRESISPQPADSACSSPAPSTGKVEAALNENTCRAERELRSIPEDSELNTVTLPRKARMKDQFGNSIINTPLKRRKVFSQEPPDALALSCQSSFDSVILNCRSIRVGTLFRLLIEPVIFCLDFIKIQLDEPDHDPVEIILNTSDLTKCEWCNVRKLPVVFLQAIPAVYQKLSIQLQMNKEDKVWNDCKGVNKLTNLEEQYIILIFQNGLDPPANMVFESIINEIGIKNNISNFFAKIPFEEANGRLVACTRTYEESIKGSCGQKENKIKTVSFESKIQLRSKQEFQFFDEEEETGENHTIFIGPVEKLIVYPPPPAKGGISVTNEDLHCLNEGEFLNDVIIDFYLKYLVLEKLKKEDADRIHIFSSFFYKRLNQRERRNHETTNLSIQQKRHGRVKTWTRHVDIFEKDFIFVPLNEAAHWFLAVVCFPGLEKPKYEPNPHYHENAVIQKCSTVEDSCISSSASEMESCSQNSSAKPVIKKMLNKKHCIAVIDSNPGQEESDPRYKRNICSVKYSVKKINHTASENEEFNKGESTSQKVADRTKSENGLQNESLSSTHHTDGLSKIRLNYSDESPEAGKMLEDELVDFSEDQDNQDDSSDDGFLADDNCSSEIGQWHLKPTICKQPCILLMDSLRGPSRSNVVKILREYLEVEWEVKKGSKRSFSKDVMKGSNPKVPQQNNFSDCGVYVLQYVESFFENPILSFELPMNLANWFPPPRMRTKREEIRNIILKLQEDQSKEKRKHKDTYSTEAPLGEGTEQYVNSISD
Briefly: SAR Analysis of small molecule inhibitors of Sentrin-specific protease 6 (SENP6) using a Luminescent assay. [Related pubchem assays (depositor defined):AID2582, AID2599]. The format is functional.

The target of another assay is T3, Caspase-3 (Homo sapiens, UniProt P42574).
T3 sequence (P42574 whole entry): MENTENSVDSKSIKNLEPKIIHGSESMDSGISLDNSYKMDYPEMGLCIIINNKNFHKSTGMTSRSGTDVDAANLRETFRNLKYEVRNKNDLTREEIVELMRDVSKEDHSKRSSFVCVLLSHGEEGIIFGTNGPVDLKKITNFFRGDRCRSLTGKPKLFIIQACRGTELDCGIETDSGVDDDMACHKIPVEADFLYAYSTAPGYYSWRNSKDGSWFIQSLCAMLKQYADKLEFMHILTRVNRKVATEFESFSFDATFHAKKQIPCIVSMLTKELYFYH
As to the kind of experiment: SAR Analysis of small molecule inhibitors of Sentrin-specific proteases (SENPs) using a Caspase-3 Selectivity assay. [Related pubchem assays (depositor defined):AID2540, AID2599, AID434973, AID489001]. The format is functional.

The target of assay [3] is T4, Sentrin-specific protease 8 (Homo sapiens, UniProt Q96LD8).
T4 sequence (Q96LD8 whole entry): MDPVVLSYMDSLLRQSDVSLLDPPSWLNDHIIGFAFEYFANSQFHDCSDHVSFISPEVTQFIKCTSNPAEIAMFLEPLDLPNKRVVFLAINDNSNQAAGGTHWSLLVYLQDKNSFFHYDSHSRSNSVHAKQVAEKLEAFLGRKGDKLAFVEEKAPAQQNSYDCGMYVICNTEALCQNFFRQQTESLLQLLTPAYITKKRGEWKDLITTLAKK
As to the kind of experiment: inhibition of human SENP8 cleavage activity – biochemical, luminescence, SAR follow-up (AID 504501). The format is functional.

In the next assay the target is Phospholipase A2 (Homo sapiens, UniProt P04054). The format is functional.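 Note: confirmatory dose-response counterscreen on phospholipase A2, testing hits that came from an ultra-high-throughput screen for ATG4B inhibitors.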
Phospholipase A2, sequence (P04054 whole entry): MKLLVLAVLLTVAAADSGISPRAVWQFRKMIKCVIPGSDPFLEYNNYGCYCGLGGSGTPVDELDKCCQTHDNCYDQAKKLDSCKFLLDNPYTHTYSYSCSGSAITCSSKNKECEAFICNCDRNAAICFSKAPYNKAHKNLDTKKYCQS
The target of another assay is Cysteine protease ATG4B (Homo sapiens, UniProt Q9Y4P1). The format is functional.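 Note: Fluorescence-based dose-response confirmation assay measuring inhibition of ATG4B activity.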
Assay [4] has as its target Voltage-dependent T-type calcium channel subunit alpha-1H (Homo sapiens, UniProt O95180). The format is functional.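 Note: channel activity triggered by adding a high calcium stimulation buffer.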
The target of assay [5] is T5, Serine/threonine-protein kinase Chk1 (Homo sapiens, UniProt O14757).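 Note: measured as one member of a kinome-wide kinase profiling panel.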
T5 sequence (O14757 whole entry): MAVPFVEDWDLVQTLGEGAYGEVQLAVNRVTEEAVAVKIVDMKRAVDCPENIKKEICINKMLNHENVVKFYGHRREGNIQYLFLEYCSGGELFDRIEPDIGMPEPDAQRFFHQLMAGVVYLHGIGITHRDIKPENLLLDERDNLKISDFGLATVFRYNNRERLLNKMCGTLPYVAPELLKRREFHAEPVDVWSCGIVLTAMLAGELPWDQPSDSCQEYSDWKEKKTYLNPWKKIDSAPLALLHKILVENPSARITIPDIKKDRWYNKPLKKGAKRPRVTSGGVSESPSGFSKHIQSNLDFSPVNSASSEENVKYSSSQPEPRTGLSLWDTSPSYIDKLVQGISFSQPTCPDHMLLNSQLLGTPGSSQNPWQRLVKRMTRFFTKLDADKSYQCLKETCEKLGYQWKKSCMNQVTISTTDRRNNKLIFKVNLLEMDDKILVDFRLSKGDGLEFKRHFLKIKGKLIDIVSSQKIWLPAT
The format is functional.

The next assay addresses LIM domain kinase 1 (Homo sapiens, UniProt P53667). As to the kind of experiment: Navigating the Kinome. Panel member name: LIMK1. The format is functional.
In assay [6] the target is Glycogen synthase kinase-3 beta (Homo sapiens, UniProt P49841). The format is functional.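 Note: value comes from a broad kinome profiling panel, with GSK3B as the panel member.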
Glycogen synthase kinase-3 beta, sequence (P49841 whole entry): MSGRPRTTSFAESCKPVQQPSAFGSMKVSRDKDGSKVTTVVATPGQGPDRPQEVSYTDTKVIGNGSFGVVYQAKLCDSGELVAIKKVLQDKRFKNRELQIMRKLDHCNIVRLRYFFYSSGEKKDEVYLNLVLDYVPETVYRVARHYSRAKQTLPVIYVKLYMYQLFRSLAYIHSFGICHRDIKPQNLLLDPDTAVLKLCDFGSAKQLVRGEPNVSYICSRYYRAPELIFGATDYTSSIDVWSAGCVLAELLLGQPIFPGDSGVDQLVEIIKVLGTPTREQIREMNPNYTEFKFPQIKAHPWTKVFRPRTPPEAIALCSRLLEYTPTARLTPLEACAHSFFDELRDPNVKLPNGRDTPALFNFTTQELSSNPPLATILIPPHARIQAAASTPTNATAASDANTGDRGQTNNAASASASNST
Assay [7] deals with Hepatocyte growth factor receptor (Homo sapiens, UniProt P08581). The format is functional.
For assay [8], the target named is Dual specificity tyrosine-phosphorylation-regulated kinase 1B (Homo sapiens, UniProt Q9Y463). As to the kind of experiment: Navigating the Kinome. Panel member name: DYRK1B. The format is functional.
Dual specificity tyrosine-phosphorylation-regulated kinase 1B, sequence (Q9Y463 whole entry): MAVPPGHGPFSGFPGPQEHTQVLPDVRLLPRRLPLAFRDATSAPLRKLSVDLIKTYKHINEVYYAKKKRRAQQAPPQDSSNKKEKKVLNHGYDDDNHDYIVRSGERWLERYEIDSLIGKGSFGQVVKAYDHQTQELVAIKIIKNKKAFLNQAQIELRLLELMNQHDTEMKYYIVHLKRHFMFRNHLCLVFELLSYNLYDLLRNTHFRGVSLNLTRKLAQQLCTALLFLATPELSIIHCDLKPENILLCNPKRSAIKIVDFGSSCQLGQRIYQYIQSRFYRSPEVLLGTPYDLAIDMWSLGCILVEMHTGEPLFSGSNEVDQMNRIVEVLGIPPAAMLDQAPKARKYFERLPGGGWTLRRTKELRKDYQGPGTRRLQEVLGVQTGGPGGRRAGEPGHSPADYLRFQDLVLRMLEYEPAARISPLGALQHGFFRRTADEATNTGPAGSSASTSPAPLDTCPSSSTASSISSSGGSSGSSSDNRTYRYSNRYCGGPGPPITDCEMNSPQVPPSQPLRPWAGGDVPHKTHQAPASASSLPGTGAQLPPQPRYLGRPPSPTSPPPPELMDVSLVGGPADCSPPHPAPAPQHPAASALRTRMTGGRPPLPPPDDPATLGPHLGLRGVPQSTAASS
Assay [9] addresses Dual specificity protein kinase CLK4 (Homo sapiens, UniProt Q9HAZ1). The format is functional.
The target in assay [10] is Dual specificity tyrosine-phosphorylation-regulated kinase 1A (Homo sapiens, UniProt Q13627). The format is functional.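 Note: measured against DYRK1A as one member of a broad kinome profiling panel.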
The next assay addresses Genome polyprotein (dengue virus type 2, UniProt P29990). As to the kind of experiment: flavivirus cap methylation enzyme inhibition – biochemical, confirmation dose response, primary screen (AID 588689). The format is functional.
The subject of another assay is Vero. As to the kind of experiment: viability of Vero cells under compound – cytotoxicity control for flavivirus capping enzyme inhibitors (AID 588742). The format is functional. Particulars: Chlorocebus sabaeus.
Assay [11] has as its target Induced myeloid leukemia cell differentiation protein Mcl-1 (Homo sapiens, UniProt Q07820). The format is functional.
Assay [12] can be described thus: viability of uninfected HEp-2 cells – cell-based, HTS, cytotoxicity control for RSV inhibitor project, dose response (AID 2410). The format is functional. The note with it: human respiratory syncytial virus.
The next assay concerns CHO. As to the kind of experiment: CHO cell viability loss, potency – luminescence, cytotoxicity control for TLR9-MyD88 binding inhibitor project, dose response (AID 588339).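 Note: CHO cells stably coexpressing TLR9 and MyD88 fusions from primary screen; compound exposure lasted 48 hours before viability readout.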 The format is functional, cell-based, hamster. Particulars: Cricetulus griseus.
The nature of assay [13]: viability of HCT116 lacking mutant beta-catenin – cell-based, human colon tumor, dose response (AID 1045).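 Note: HCT116 colon tumor cells with beta catenin knocked out; cells exposed to compound for 60 hours.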 The format is functional.
Assay [14] in a line: viability of PTEN-deleted HCT116 cells – cell-based, HCT116 PTEN knockout, dose response (AID 1047).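 Note: HCT116 colon tumor cells with PTEN knocked out; cells exposed to compound for 60 hours before readout.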 The format is functional.
The target of a further assay is Beta Lactamase (Pseudomonas aeruginosa, UniProt Q932Y6). Briefly: BLA reporter interference, concentration series – BLA reporter cells, FRET fluorescence, artefact control for TLR9-MyD88 binding inhibitor project, dose response (AID 588341).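 Note: cell based assay in CHO-K1 cells stably expressing beta-lactamase.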 The format is cell-based.

Genome polyprotein, sequence (P29990 2492-3391 limits assumed): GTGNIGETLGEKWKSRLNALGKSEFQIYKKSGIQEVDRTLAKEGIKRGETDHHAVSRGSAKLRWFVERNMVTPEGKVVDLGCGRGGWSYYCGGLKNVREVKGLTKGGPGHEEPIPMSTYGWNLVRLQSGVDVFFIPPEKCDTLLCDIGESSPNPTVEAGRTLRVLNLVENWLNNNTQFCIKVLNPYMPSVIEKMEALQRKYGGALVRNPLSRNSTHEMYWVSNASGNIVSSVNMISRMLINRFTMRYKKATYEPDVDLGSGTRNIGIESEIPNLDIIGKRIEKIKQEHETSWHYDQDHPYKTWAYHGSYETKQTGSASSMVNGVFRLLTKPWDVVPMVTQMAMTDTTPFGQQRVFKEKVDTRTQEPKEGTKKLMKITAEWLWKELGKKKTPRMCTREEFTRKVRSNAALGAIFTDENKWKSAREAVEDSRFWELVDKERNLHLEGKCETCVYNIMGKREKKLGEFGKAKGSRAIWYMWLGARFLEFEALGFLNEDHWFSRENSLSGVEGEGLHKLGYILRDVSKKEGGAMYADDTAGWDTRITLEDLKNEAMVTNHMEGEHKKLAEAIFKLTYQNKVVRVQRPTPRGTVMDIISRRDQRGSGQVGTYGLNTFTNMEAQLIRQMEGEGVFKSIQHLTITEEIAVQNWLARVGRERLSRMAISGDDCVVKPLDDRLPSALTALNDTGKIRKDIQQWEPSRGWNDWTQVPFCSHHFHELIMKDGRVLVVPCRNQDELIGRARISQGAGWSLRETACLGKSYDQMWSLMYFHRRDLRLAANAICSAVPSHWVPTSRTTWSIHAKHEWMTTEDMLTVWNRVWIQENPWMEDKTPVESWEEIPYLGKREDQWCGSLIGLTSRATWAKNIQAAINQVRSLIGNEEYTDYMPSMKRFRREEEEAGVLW
Voltage-dependent T-type calcium channel subunit alpha-1H, sequence (O95180 whole entry): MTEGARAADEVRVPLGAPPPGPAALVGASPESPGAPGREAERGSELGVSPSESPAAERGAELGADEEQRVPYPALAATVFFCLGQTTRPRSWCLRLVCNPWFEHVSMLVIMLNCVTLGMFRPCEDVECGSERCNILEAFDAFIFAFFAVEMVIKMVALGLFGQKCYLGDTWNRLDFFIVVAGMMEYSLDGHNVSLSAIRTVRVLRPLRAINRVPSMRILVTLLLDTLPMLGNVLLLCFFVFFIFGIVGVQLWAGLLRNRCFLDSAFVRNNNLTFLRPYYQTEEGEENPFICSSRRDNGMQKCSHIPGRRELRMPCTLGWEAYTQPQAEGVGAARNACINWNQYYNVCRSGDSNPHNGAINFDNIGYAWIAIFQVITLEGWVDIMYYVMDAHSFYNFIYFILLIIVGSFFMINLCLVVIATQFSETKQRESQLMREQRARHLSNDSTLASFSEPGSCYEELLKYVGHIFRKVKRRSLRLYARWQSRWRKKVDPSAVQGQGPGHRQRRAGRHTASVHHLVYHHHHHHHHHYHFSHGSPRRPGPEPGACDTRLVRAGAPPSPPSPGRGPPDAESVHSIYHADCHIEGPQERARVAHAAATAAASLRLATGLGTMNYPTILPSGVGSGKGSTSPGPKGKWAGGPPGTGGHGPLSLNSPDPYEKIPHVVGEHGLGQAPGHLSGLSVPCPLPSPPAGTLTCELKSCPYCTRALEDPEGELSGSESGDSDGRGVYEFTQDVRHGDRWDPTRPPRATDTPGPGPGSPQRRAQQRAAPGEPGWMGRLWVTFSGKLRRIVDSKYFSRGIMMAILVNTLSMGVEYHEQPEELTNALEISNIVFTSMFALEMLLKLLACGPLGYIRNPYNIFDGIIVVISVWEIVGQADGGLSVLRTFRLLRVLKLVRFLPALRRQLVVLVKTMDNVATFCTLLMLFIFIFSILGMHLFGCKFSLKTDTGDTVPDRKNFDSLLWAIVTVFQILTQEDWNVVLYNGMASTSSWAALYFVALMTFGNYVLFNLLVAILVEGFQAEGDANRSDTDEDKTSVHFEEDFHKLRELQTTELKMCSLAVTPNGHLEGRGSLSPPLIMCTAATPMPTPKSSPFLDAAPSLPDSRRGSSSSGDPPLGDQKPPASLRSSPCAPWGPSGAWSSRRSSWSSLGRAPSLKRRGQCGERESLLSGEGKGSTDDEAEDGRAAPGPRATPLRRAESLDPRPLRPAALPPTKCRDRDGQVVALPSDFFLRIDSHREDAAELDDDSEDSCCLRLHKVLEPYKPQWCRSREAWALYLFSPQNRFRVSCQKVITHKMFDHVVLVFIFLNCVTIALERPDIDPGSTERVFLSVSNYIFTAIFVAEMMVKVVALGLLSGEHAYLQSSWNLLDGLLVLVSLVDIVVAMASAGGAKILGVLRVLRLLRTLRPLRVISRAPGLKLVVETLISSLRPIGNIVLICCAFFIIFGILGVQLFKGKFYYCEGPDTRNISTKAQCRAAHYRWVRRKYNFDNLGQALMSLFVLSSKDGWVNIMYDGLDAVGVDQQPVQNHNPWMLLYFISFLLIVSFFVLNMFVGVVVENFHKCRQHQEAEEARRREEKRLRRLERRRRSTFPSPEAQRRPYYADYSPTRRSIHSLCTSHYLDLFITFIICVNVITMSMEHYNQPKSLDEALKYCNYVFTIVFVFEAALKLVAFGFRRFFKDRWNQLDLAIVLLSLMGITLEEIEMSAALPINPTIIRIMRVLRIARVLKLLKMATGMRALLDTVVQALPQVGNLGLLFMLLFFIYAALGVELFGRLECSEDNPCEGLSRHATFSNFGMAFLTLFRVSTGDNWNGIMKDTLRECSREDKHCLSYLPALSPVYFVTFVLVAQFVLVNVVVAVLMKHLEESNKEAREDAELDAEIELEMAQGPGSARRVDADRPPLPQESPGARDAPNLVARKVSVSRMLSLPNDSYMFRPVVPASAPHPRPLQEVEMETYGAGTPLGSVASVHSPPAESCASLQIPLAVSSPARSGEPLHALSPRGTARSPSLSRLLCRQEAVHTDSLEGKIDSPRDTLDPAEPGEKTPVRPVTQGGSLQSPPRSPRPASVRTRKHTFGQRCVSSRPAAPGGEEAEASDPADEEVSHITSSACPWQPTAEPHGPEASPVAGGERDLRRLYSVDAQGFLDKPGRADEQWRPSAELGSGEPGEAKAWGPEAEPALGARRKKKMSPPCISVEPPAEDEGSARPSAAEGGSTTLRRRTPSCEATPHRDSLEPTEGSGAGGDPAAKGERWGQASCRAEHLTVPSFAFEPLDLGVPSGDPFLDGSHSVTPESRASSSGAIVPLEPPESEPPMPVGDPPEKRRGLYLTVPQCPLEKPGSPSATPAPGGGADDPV
LIM domain kinase 1, sequence (P53667 whole entry, the tested form may be a part): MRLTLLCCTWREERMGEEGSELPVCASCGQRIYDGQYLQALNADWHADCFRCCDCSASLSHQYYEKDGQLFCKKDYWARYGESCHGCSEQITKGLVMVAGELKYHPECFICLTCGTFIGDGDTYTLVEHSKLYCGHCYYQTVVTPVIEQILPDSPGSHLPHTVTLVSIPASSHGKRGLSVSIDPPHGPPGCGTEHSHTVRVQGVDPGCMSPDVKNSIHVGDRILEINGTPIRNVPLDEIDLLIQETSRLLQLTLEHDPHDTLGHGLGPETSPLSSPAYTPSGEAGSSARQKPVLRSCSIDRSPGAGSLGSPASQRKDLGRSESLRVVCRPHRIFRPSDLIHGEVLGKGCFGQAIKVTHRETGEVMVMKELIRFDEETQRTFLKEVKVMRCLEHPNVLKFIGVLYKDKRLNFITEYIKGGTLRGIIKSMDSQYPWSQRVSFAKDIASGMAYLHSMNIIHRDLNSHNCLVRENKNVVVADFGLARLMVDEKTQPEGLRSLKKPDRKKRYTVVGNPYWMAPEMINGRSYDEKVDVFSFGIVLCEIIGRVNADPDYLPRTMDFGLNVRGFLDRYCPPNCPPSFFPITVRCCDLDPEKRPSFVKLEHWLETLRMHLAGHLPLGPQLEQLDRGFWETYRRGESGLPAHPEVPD

As to `O=C(Nc1nc2ccc(Cl)cc2s1)c1nn(-c2ccccc2)ccc1=O`, the IC50 (in [1]; in assay [2]; on Caspase-3; in assay [3]) was > 99 µM (inactive) throughout.

`Cc1cccc(C)c1OCC(=O)Nc1cccc(NC(=O)c2ccco2)c1`: the IC50 was 8.37 µM (active) at Phospholipase A2 and 15.9 µM (active) at Cysteine protease ATG4B. For the same compound, the EC50 in assay [4] was 6.78 µM (active).

`COC(=O)c1csc2ccc(=O)[nH]c12`: the Ki was 15.8 µM (active) in assay [5]; 15.8 µM (active) at LIM domain kinase 1; 79.4 µM (active) in assay [6]; 79.4 µM (active) in [7]; 63.1 µM (active) in [8]; 12.6 µM (active) in [9]. Moreover, the Ki in assay [10] is 25.1 µM (active).

Regarding `COc1ccccc1NC1=C(NC(C)=O)C(=O)c2ccccc2C1=O`, the values for the IC50 (at Genome polyprotein; in assay [11]) were > 100 µM (active) and 2.28 µM (active), respectively. In the assay with Vero, the CC50 was > 40 µM (active).

For the compound `COC(=O)COc1ccc(C(C2C(=O)CC(C)(C)CC2=O)C2C(=O)CC(C)(C)CC2=O)cc1`, on Genome polyprotein, the half-maximal inhibitory concentration (IC50) was 48 µM (active). Further, in the assay with Vero, the CC50 is > 40 µM (active).

Regarding `COc1ccccc1NS(=O)(=O)c1cc([N+](=O)[O-])ccc1N/N=C/c1c[nH]c2ccccc12`, in assay [12], the CC50 is 41.7 µM (active). For the same compound, the IC50 in the assay with CHO is 32 µM (inactive); on Beta Lactamase, 2.74 µM (active). For the same compound, the EC50 is 21.8 µM (active) in [13] and 21.9 µM (active) in [14].

Broadly, the IC50 is the point on the concentration scale where inhibition reaches its midpoint. One may read the EC50 as the concentration giving half of the maximal effect. For orientation: Ki means a dissociation constant, usually derived from enzyme kinetics or from competition with a known ligand. In general, CC50 refers to the concentration at which the toxic effect on the cells reaches its halfway point.
